Laboratory results: patent US20220340564A1, “ANTIBACTERIAL COMPOUNDS” (Janssen Sciences Ireland Unlimited Company, priority 2019, published 2022)

The compounds below were run on Mycobacterium tuberculosis strain EH4.0 expressing green-fluorescent protein (GFP) (assay: microbe, parasite or virus in culture). Settings: 168 h, read-out: pIC50 (converted).
Type: cell-based
With CCc1nc2nc(C)c(C)cn2c1C(=O)NCc1ccc(N2CCN(S(=O)(=O)C(F)(F)F)C(OC)=N2)c(F)c1 [Compound 211] the IC50 was 2.29 nM.
For O=C(NCc1ccc(N2CCN(S(=O)(=O)C(F)(F)F)C=N2)c(F)c1)c1c(C(F)(F)F)nc2cc(F)c(Cl)cn12 [Compound 114], the IC50 was 16.2 nM.
With CCc1nc2cc(OC)c(OC)cn2c1C(=O)NCc1ccc(N2CCN(S(=O)(=O)C(F)(F)F)C(OC)=N2)c(F)c1 [Compound 53] the IC50 was 81.3 nM.
In the case of CCc1nc2c(F)cc(C)cn2c1C(=O)NCc1cnc(N2CCNC=N2)c(F)c1 [Compound 187], the IC50 was no less than 501 nM.
In the case of CCc1nc2ncc(Cl)cn2c1C(=O)NCc1ccc(N2CCN(S(=O)(=O)C(F)(F)F)C=N2)c(F)c1 [Compound 146], the IC50 was 3.8 nM.
CCc1nc2nc(Cl)ccn2c1C(=O)NCc1ccc(N2CCN(S(=O)(=O)C(F)(F)F)C=N2)c(F)c1 [Compound 125] gave an IC50 of 9.77 nM.
CCc1nc2cc3c(cn2c1C(=O)NCc1ccc(N2CCN(S(=O)(=O)C(F)(F)F)C=N2)c(F)c1)OCC3 [Compound 131] was tested, and the IC50 was 8.71 nM.
In the case of CCc1nc2cc(OC)ccn2c1C(=O)NCc1ccc(N2CCN(S(=O)(=O)C(F)(F)F)C=N2)cc1 [Compound 51], the IC50 was 45.7 nM.
With O=C(NCc1ccc(N2CCN(S(=O)(=O)C(F)(F)F)C=N2)c(F)c1)c1c(C(F)(F)F)nc2ccc(Cl)cn12 [Compound 124] the IC50 was 10 nM.
In the case of CCc1nc2nc(C)c(Cl)cn2c1C(=O)NCc1ccc(N2CCN(S(=O)(=O)C(F)(F)F)C=N2)c(F)c1 [Compound 155], the IC50 was 1.62 nM.
For CCc1nc2ccc(Cl)cn2c1C(=O)NCc1cnc(N2CCN(S(=O)(=O)C(F)(F)F)C=N2)c(F)c1 [Compound 142], the IC50 was 4.68 nM.
CCc1nc2ncc(C(=O)N(C)C)cn2c1C(=O)NCc1ccc(N2CCN(S(=O)(=O)C(F)(F)F)C=N2)cc1 [Compound 60] was tested, and the IC50 was 200 nM.
CCc1nc2c(F)cc(C)cn2c1C(=O)NCc1cnc(N2CCN(S(=O)(=O)C(F)(F)F)C=N2)c(F)c1 [Compound 181] gave an IC50 of 6.31 nM.
Compound CCc1nc2ccc(Cl)cn2c1C(=O)NCc1ccc(N2CCN(S(=O)(=O)C(F)(F)F)C(CN(C)C)=N2)cc1 [Compound 74] has an IC50 of 6.76 nM.
In the case of CCc1nc2ncc(C(=O)NC)cn2c1C(=O)NCc1ccc(N2CCN(S(=O)(=O)C(F)(F)F)C=N2)cc1 [Compound 61], the IC50 was no less than 501 nM.
Compound CCc1nc2c(Cl)cc(C)cn2c1C(=O)NCc1ccc(N2CCN(S(=O)(=O)C(F)(F)F)C=N2)c(F)c1 [Compound 102] has an IC50 of 29.5 nM.
Cc1cc(F)c2ncc(C(=O)NCc3ccc(N4CCN(S(=O)(=O)C(F)(F)F)C=N4)c(F)c3)n2c1 [Compound 173] showed an IC50 of 50.1 nM.
CCc1nc2cc3c(cn2c1C(=O)NCc1ccc(N2CCN(S(=O)(=O)C(F)(F)F)C=N2)c(F)c1)OCCN3C [Compound 191] was tested, and the IC50 was 38 nM.
Work on CCc1nc2nc(OC)c(F)cn2c1C(=O)NCc1ccc(N2CCN(S(=O)(=O)C(F)(F)F)C=N2)c(F)c1 [Compound 179] yielded an IC50 of 126 nM.
With COC1=NN(c2ccc(CNC(=O)c3c(C(F)F)nc4ccccn34)cc2F)CCN1S(=O)(=O)C(F)(F)F [Compound 160] the IC50 was 1.2 nM.
CCc1nc2cc(OC)c(Cl)cn2c1C(=O)NCc1ccc(N2CCN(S(=O)(=O)C(F)(F)F)C(OC)=N2)cc1 [Compound 68] gave an IC50 of no less than 501 nM.
For CCOc1cn2c(CC)c(C(=O)NCc3ccc(N4CCN(S(=O)(=O)C(F)(F)F)C=N4)c(F)c3)nc2nc1N1CCCC1 [Compound 81], the IC50 was no less than 501 nM.
Work on CCc1nc2ccc(F)cn2c1C(=O)NCc1ccc(N2CCN(S(=O)(=O)C(F)(F)F)C=N2)c(F)c1 [Compound 156] yielded an IC50 of 1.38 nM.
COC1=NN(c2ccc(CNC(=O)c3c(C(F)(F)F)nc4ccccn34)cc2F)CCN1S(=O)(=O)C(F)(F)F [Compound 79] showed an IC50 of 3.72 nM.
CCc1nc2cc(OC)c(Cl)cn2c1C(=O)NCc1ccc(N2CCN(S(=O)(=O)C(F)(F)F)C=N2)cc1 [Compound 64] showed an IC50 of 316 nM.
CCc1nc2ccc(Cl)cn2c1C(=O)NCc1ccc(N2CCN(S(=O)(=O)C(F)(F)F)C(CCO)=N2)cc1 [Compound 40] was tested, and the IC50 was 63.1 nM.
In the case of CCc1nc2cc(Cl)c(OC)cn2c1C(=O)NCc1ccc(N2CCN(S(=O)(=O)C(F)(F)F)C(OC)=N2)cc1 [Compound 45], the IC50 was 39.8 nM.
For CCc1nc2ncc(Cl)cn2c1C(=O)NCc1ccc(N2CCN(C(C)=O)C=N2)cc1 [Compound 24], the IC50 was 15.8 nM.
CCc1nc2ccc(Cl)cn2c1C(=O)NCc1ccc(N2CCN(S(=O)(=O)C(F)(F)F)C(C)=N2)cc1 [Compound 21] was tested, and the IC50 was 2.51 nM.
With CCc1nc2c(Br)cc(C)cn2c1C(=O)NCc1ccc(N2CCN(S(=O)(=O)C(F)(F)F)C=N2)c(F)c1 [Compound 166] the IC50 was 245 nM.
Compound CCc1nc2ccc(Cl)cn2c1C(=O)NCc1ccc(N2CCN(C)C(C)=N2)cc1 [Compound 59] has an IC50 of 200 nM.
CCc1nc2c(C)cc(OC)cn2c1C(=O)NCc1ccc(N2CCN(S(=O)(=O)C(F)(F)F)C=N2)c(F)c1 [Compound 105] showed an IC50 of 27.5 nM.
Work on COC1=NN(c2ccc(CNC(=O)c3c(C(F)(F)F)nc4n3CCCC4)cc2)CCN1S(=O)(=O)C(F)(F)F [Compound 98] yielded an IC50 of 33.1 nM.
In the case of CCc1nc2ccc(Cl)cn2c1C(=O)NCc1ccc(N2CCN(S(=O)(=O)CC(C)C)C=N2)cc1 [Compound 17], the IC50 was 20 nM.
For CCc1nc2cc(Cl)c(C)cn2c1C(=O)NCc1ccc(N2CCN(S(=O)(=O)C(F)(F)F)C(OC)=N2)c(F)c1 [Compound 209], the IC50 was 11.2 nM.
In the case of CCc1nc2ccc(C#N)cn2c1C(=O)NCc1ccc(N2CCN(S(=O)(=O)C(F)(F)F)C=N2)cc1 [Compound 72], the IC50 was 158 nM.
CCc1nc2ccc(Cl)cn2c1C(=O)NCc1ccc(N2CCNC=N2)cc1 [Compound 56] gave an IC50 of 158000 nM.
With CCc1nc2n(c1C(=O)NCc1ccc(N3CCNC=N3)cc1)CCCC2 [Compound 57] the IC50 was no less than 501 nM.
CCc1nc2ncc(F)cn2c1C(=O)NCc1ccc(N2CCN(S(=O)(=O)C(F)(F)F)C=N2)c(F)c1 [Compound 130] was tested, and the IC50 was 8.71 nM.
For COC1=NN(c2ccc(CNC(=O)c3c(C(F)F)nc4ccc(Cl)cn34)cc2F)CCN1S(=O)(=O)C(F)(F)F [Compound 206], the IC50 was 2.45 nM.
In the case of CCc1nc2c(N)cc(C)cn2c1C(=O)NCc1ccc(N2CCN(S(=O)(=O)C(F)(F)F)C=N2)c(F)c1 [Compound 212], the IC50 was 25.7 nM.
For CCc1nc2ccc(Cl)cn2c1C(=O)NCc1ccc(N2CCN(C=O)C=N2)cc1 [Compound 38], the IC50 was 63.1 nM.
Work on COC1=NN(c2ccc(CNC(=O)c3c(C(F)F)nc4ccccn34)cc2)CCN1S(=O)(=O)C(F)(F)F [Compound 149] yielded an IC50 of 3.55 nM.
Compound O=C(NCc1ccc(N2CCNC=N2)c(F)c1)c1c(C(F)(F)F)nc2ccccn12 [Compound 192] has an IC50 greater than 500 nM.
CCc1nc2ccc(Cl)cn2c1C(=O)NCc1ccc(N2CCNC(OC)=N2)cc1 [Compound 96] showed an IC50 of 36.3 nM.
Work on CCc1nc2c(F)cc(C)cn2c1C(=O)NCc1ccc(N2CCNC=N2)c(F)c1 [Compound 198] yielded an IC50 of 93.3 nM.
CCc1nc2ncc(COC)cn2c1C(=O)NCc1ccc(N2CCN(S(=O)(=O)C(F)(F)F)C=N2)cc1 [Compound 33] gave an IC50 of 25.1 nM.
CCc1nc2nc(N)c(Cl)cn2c1C(=O)NCc1ccc(N2CCN(S(=O)(=O)C(F)(F)F)C=N2)c(F)c1 [Compound 126] showed an IC50 of 9.77 nM.
Work on CCc1nc2sc(Cl)cn2c1C(=O)NCc1ccc(N2CCN(S(=O)(=O)C(F)(F)F)C=N2)c(F)c1 [Compound 135] yielded an IC50 of 7.24 nM.
CCc1nc2c(F)cc(Cl)cn2c1C(=O)NCc1ccc(N2CCN(S(=O)(=O)C(F)(F)F)C(OC)=N2)c(F)c1 [Compound 210] showed an IC50 of 3.02 nM.
COc1ccn2nc(C)c(C(=O)NCc3ccc(N4CCN(S(=O)(=O)C(F)(F)F)C=N4)cc3)c2c1 [Compound 14] was tested, and the IC50 was 6.31 nM.
With CCc1nc2ncc(C)cn2c1C(=O)NCc1ccc(N2CCN(S(=O)(=O)C(F)(F)F)C(OC)=N2)cc1 [Compound 200] the IC50 was 5.5 nM.
In the case of CCc1nc2ncc(Cl)cn2c1C(=O)NCc1ccc(N2CCN(S(=O)(=O)C(F)(F)F)C(CCO)=N2)cc1 [Compound 41], the IC50 was 50.1 nM.
CCc1nc2ccc(Cl)cn2c1C(=O)NCc1ccc(N2CCN(C(C)=O)C=N2)cc1 [Compound 18] gave an IC50 of 15.8 nM.
CCc1nc2ncc(Cl)cn2c1C(=O)NCc1cnc(N2CCN(S(=O)(=O)C(F)(F)F)C=N2)c(F)c1 [Compound 168] showed an IC50 of 38.9 nM.
For COC1=NN(c2ccc(CNC(=O)c3c(C)nn4ccc(OC)cc34)cc2)CCN1S(=O)(=O)C(F)(F)F [Compound 34], the IC50 was 10 nM.
In the case of CCc1nc2ccc(Cl)cn2c1C(=O)NCc1ccc(N2CCN(S(=O)(=O)C(F)(F)F)C=N2)cc1OC [Compound 22], the IC50 was 398 nM.
In the case of CCc1nc2n(ccc3ncnn32)c1C(=O)NCc1ccc(N2CCN(S(=O)(=O)C(F)(F)F)C=N2)c(F)c1 [Compound 207], the IC50 was 186 nM.
Compound Cc1nc2sc(Cl)cn2c1C(=O)NCc1ccc(N2CCN(S(=O)(=O)C(F)(F)F)C=N2)c(F)c1 [Compound 133] has an IC50 of 7.59 nM.
Work on CCc1nc2c(C)cc(Cl)cn2c1C(=O)NCc1ccc(N2CCN(S(=O)(=O)C(F)(F)F)C=N2)c(F)c1 [Compound 85] yielded an IC50 of 95.5 nM.
Compound CCc1nc2ccc(CCCOC)cn2c1C(=O)NCc1ccc(N2CCN(S(=O)(=O)C(F)(F)F)C=N2)cc1 [Compound 63] has an IC50 of no less than 501 nM.
Work on CCc1nc2c(C)cc(F)cn2c1C(=O)NCc1ccc(N2CCN(S(=O)(=O)C(F)(F)F)C=N2)c(F)c1 [Compound 89] yielded an IC50 of 83.2 nM.
CCC1=NN(c2ccc(CNC(=O)c3c(CC)nc4ccc(Cl)cn34)cc2)CCN1S(=O)(=O)C(F)(F)F [Compound 2] showed an IC50 of 15.8 nM.
For CCc1nc2n(c1C(=O)NCc1ccc(N3CCN(S(=O)(=O)C(F)(F)F)C=N3)cc1)CCCC2 [Compound 3], the IC50 was 31.6 nM.
CCc1nc2cc(Cl)c(OC)cn2c1C(=O)NCc1ccc(N2CCN(S(=O)(=O)C(F)(F)F)C(OC)=N2)c(F)c1 [Compound 49] showed an IC50 of 23.4 nM.
CCc1nc2n(c1C(=O)NCc1ccc(N3CCN(S(=O)(=O)CCOC)C=N3)cc1)CCCC2 [Compound 58] gave an IC50 of 251 nM.
In the case of CC1=NN(c2ccc(CNC(=O)c3c(C(F)(F)F)nc4ccccn34)cc2)CCN1S(=O)(=O)C(F)(F)F [Compound 214], the IC50 was 13.5 nM.
With CCc1nc2cc(Cl)c(OC)cn2c1C(=O)NCc1ccc(N2CCN(S(=O)(=O)C(F)(F)F)C=N2)cc1 [Compound 67] the IC50 was 200 nM.
CCc1nc2sc(C)cn2c1C(=O)NCc1ccc(N2CCN(S(=O)(=O)C(F)(F)F)C=N2)c(F)c1 [Compound 163] showed an IC50 of 0.316 nM.
Work on CCc1nc2ccc(F)cn2c1C(=O)NCc1ccc(N2CCN(S(=O)(=O)C(F)(F)F)C(OC)=N2)c(F)c1 [Compound 204] yielded an IC50 of 4.47 nM.
